# According to ChEMBL document CHEMBL4270624, “Synthesis and antibacterial evaluation of 13-substituted cycloberberine derivatives as a novel class of anti-MRSA agents” (Eur J Med Chem, 2018):
# Columns and labels:
# Assay type in all cases: functional
# Staphylococcus aureus [1] = test: Antibacterial activity against methicillin-sensitive Staphylococcus aureus ATCC 29213 after 18 hrs by agar dilution method; conditions: ATCC 29213, 18 h
# Staphylococcus aureus [2] = test: Antibacterial activity against methicillin-resistant Staphylococcus aureus 13-18 clinical isolate after 18 hrs by agar dilution method; conditions: 13-18, 18 h
# Staphylococcus aureus [3] = test: Antibacterial activity against methicillin-resistant Staphylococcus aureus ATCC BAA-1708 after 18 hrs by agar dilution method; conditions: ATCC BAA-1708, 18 h
# Staphylococcus aureus [4] = test: Antibacterial activity against methicillin-resistant Staphylococcus aureus 16-30 clinical isolate after 18 hrs by agar dilution method; conditions: 16-30, 18 h
# Staphylococcus aureus [5] = test: Antibacterial activity against methicillin-resistant Staphylococcus aureus 16-34 clinical isolate after 18 hrs by agar dilution method; conditions: 16-34, 18 h
# Staphylococcus aureus [6] = test: Antibacterial activity against methicillin-resistant Staphylococcus aureus 13-23 clinical isolate after 18 hrs by agar dilution method; conditions: 13-23, 18 h
# Staphylococcus aureus [7] = test: Antibacterial activity against methicillin-resistant Staphylococcus aureus ATCC 43300 after 18 hrs by agar dilution method; conditions: ATCC 43300, 18 h
# Staphylococcus aureus [8] = test: Antibacterial activity against methicillin-resistant Staphylococcus aureus ATCC BAA-976 after 18 hrs by agar dilution method; conditions: ATCC BAA-976, 18 h
# Staphylococcus aureus [9] = test: Antibacterial activity against methicillin-sensitive Staphylococcus aureus 16-1 clinical isolate after 18 hrs by agar dilution method; conditions: 16-1, 18 h
# Staphylococcus aureus [10] = test: Antibacterial activity against methicillin-resistant Staphylococcus aureus ATCC 33591 after 18 hrs by agar dilution method; conditions: ATCC 33591, 18 h
SMILES,MIC (Staphylococcus aureus [1]),MIC (Staphylococcus aureus [2]),MIC (Staphylococcus aureus [3]),MIC (Staphylococcus aureus [4]),MIC (Staphylococcus aureus [5]),MIC (Staphylococcus aureus [6]),MIC (Staphylococcus aureus [7]),MIC (Staphylococcus aureus [8]),MIC (Staphylococcus aureus [9]),MIC (Staphylococcus aureus [10])
COc1ccc2c(c[n+]3c4c2cc(Cc2ccccc2)c2c5c(cc(c24)CC3)OCO5)c1OC.[Br-],4 µg/mL,8 µg/mL,8 µg/mL,4 µg/mL,4 µg/mL,4 µg/mL,4 µg/mL,4 µg/mL,4 µg/mL,4 µg/mL
COC(=O)c1ccc(Cc2cc3c4ccc(OC)c(OC)c4c[n+]4c3c3c(cc5c(c23)OCO5)CC4)cc1.[Br-],32 µg/mL,32 µg/mL,64 µg/mL,64 µg/mL,> 64 µg/mL,64 µg/mL,64 µg/mL,32 µg/mL,64 µg/mL,32 µg/mL
COc1ccc2c(c[n+]3c4c2cc(Cc2cc(C(F)(F)F)cc(C(F)(F)F)c2)c2c5c(cc(c24)CC3)OCO5)c1OC.[Br-],> 64 µg/mL,> 64 µg/mL,> 64 µg/mL,> 64 µg/mL,> 64 µg/mL,> 64 µg/mL,> 64 µg/mL,> 64 µg/mL,> 64 µg/mL,> 64 µg/mL
COc1ccc2c(c[n+]3c4c2cc(Cc2ccc(C)cc2)c2c5c(cc(c24)CC3)OCO5)c1OC.[Br-],2 µg/mL,4 µg/mL,8 µg/mL,2 µg/mL,2 µg/mL,4 µg/mL,4 µg/mL,2 µg/mL,2 µg/mL,2 µg/mL
COc1ccc2c(c[n+]3c4c2cc(Cc2ccc(C#N)cc2)c2c5c(cc(c24)CC3)OCO5)c1OC.[Br-],> 64 µg/mL,> 64 µg/mL,> 64 µg/mL,> 64 µg/mL,> 64 µg/mL,> 64 µg/mL,> 64 µg/mL,> 64 µg/mL,> 64 µg/mL,> 64 µg/mL
COc1ccc2c(c[n+]3c4c2cc(Cc2ccc(Cl)cc2)c2c5c(cc(c24)CC3)OCO5)c1OC.[Br-],8 µg/mL,8 µg/mL,32 µg/mL,4 µg/mL,4 µg/mL,8 µg/mL,32 µg/mL,8 µg/mL,8 µg/mL,8 µg/mL
COC(=O)C(c1ccccc1)c1cc2c3ccc(OC)c(OC)c3c[n+]3c2c2c(cc4c(c12)OCO4)CC3.[Br-] (stereo not given),> 64 µg/mL,> 64 µg/mL,> 64 µg/mL,> 64 µg/mL,> 64 µg/mL,> 64 µg/mL,> 64 µg/mL,> 64 µg/mL,> 64 µg/mL,> 64 µg/mL
COc1ccc2c(c[n+]3c4c2cc(Cc2ccc([N+](=O)[O-])cc2)c2c5c(cc(c24)CC3)OCO5)c1OC.[Br-],> 64 µg/mL,> 64 µg/mL,> 64 µg/mL,> 64 µg/mL,> 64 µg/mL,> 64 µg/mL,> 64 µg/mL,> 64 µg/mL,> 64 µg/mL,> 64 µg/mL
COc1ccc2c(c[n+]3c4c2cc(Cc2ccncc2)c2c5c(cc(c24)CC3)OCO5)c1OC.[Br-],64 µg/mL,64 µg/mL,64 µg/mL,64 µg/mL,64 µg/mL,32 µg/mL,64 µg/mL,64 µg/mL,64 µg/mL,64 µg/mL
COc1ccc2c(c[n+]3c4c2cc(Cc2ccc(F)c(C(F)(F)F)c2)c2c5c(cc(c24)CC3)OCO5)c1OC.[Br-],32 µg/mL,16 µg/mL,32 µg/mL,16 µg/mL,64 µg/mL,32 µg/mL,32 µg/mL,32 µg/mL,8 µg/mL,32 µg/mL
COc1ccc2c(c[n+]3c4c2cc(Cc2ccc(C(C)C)cc2)c2c5c(cc(c24)CC3)OCO5)c1OC.[Br-],8 µg/mL,32 µg/mL,32 µg/mL,16 µg/mL,16 µg/mL,32 µg/mL,32 µg/mL,16 µg/mL,8 µg/mL,8 µg/mL
COc1ccc2c(c[n+]3c4c2cc(Cc2ccc(C(C)(C)C)cc2)c2c5c(cc(c24)CC3)OCO5)c1OC.[Br-],32 µg/mL,64 µg/mL,64 µg/mL,64 µg/mL,64 µg/mL,64 µg/mL,64 µg/mL,64 µg/mL,32 µg/mL,64 µg/mL
COc1ccc2c(c[n+]3c4c2ccc2c5c(cc(c24)CC3)OCO5)c1OC.[Br-],> 64 µg/mL,> 64 µg/mL,> 64 µg/mL,> 64 µg/mL,> 64 µg/mL,> 64 µg/mL,> 64 µg/mL,> 64 µg/mL,> 64 µg/mL,> 64 µg/mL
